Test results published in US20070078263A1, “BIARYL SUBSTITUTED HETEROCYCLE INHIBITORS OF LTA4H FOR TREATING INFLAMMATION” (deCODE Chemistry, Inc., priority 2005, published 2007).
Structures can show the parent of a compound that is named as a salt.

What was measured:
[1] = tested on: primate model; settings: eight weeks of treatment; cited from earlier work
[2] = tested on: ionophore-induced LTB4 production; settings: oral administration; cited from earlier work
[3] = tested on: ionophore-induced LTB4 production; settings: oral administration; cited from earlier work; remark: listed apart in the source
[4] = target: T1, human LTA4 hydrolase (Homo sapiens, UniProt P09960); test: In vitro assay testing inhibitory activity against purified recombinant human LTA4 hydrolase (LTB4 formed, LC-MS/MS); format: biochemical;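 further: 200 nM enzyme preincubated 10 min at room temperature with serial inhibitor dilutions in pH 8.0 Tris buffer with BSA and 10% DMSO, then 2 µM LTA4 added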
T1 construct: A human LTA4 hydrolase full-length cDNA clone (NM 000895) was purchased; His tag (6xHis of vector pDEST17); made in house; host or cells: Escherichia coli BL21-AI
T1 sequence (P09960 1-611): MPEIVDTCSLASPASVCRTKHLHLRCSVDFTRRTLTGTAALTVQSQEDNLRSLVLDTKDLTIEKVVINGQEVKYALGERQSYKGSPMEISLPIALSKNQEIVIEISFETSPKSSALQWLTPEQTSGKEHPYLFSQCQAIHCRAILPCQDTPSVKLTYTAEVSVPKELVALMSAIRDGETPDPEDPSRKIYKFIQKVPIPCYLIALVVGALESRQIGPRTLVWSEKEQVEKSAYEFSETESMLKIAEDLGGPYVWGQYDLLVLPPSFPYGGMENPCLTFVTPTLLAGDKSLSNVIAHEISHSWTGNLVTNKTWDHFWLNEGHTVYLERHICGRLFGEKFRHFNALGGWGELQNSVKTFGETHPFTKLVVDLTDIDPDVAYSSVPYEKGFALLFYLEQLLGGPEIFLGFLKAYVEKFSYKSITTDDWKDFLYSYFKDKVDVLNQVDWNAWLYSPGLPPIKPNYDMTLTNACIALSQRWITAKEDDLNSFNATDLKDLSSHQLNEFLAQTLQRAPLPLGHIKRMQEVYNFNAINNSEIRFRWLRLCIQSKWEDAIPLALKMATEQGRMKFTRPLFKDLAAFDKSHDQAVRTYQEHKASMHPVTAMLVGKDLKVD

[5] = tested on: human whole blood; test: Ex vivo assay testing inhibitory activity in human whole blood after stimulation with calcium ionophore (LTB4 ELISA); format: cell-based; settings: Ionomycin 20 μM, read-out: hWBIC50;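 further: heparinized human blood preincubated 15 min at 37 °C with compound, then ionomycin-stimulated for 30 min, LTB4 in plasma supernatant quantified by ELISA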
Protocol: (2) Ex vivo assay testing inhibitory activity in human whole blood after stimulation with calcium ionophor.
Human blood was collected in heparin-containing Vacutainer tubes. […] Then 4 μl of a series of compound dilutions (in DMSO) were added, followed by a 15 min incubation at 37° C. with gentle shaking. After that, blood samples were stimulated by adding Ionomycin (Calbiochem) to a final concentration of 20 μM. After another incubation at 37° C. for 30 min, samples were centrifuged for 5 min at 1800 g and 4° C. Supernatants were taken and LTB4 concentrations were determined using a commercially available enzyme-linked immunosobentassay (R&D Systems, Minneapolis, Minn.) according to the manufacturer's instructions.

SMILES	colitis symptoms in a primate model [1]	inhibition of ionophore-induced LTB4 production in rat peritoneum in vivo [2]	inhibition of ionophore-induced LTB4 production in mouse blood ex vivo [3]	IC50 [4] [µM]	IC50 [5] [µM]
CN(CCCOc1ccc(Cc2ccccc2)cc1)CCC(=O)O.Cl [SC57461]	significantly improved colitis symptoms	inhibition of ionophore-induced LTB4 production	inhibition of ionophore-induced LTB4 production		
O=C(O)CCCN1CCCC[C@H]1COc1ccc(Oc2ccc(Cl)cc2)cc1 [Example 61, 4-{(S)-2-[4-(4-Chloro-phenoxy)-phenoxymethyl]-piperidin-1-yl}-butyric acid hydrochloride]				< 5	< 5
